Laboratory results as given in patent EP2951180B1, “2,6,7,8 SUBSTITUTED PURINES AS HDM2 INHIBITORS” (Merck Sharp & Dohme Corp., priority 2013, dated 2014).

Molecular target: T1, HDM2 (Homo sapiens, UniProt Q00987)
T1 construct: Thioredoxin (N); made in house; host or cells: E. coli strain BL21(DE3)Rosetta
Test: FRET assay (HDM2 inhibition; method not described in this part)
Assay type: binding

T1 sequence (Q00987 17-125): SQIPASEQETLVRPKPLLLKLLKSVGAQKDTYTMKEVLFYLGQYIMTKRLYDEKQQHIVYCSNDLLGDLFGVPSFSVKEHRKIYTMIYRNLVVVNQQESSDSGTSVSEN

For `Cc1ccc(OCCCO)c(-c2nc3nc(C(=O)O)nc(N[C@H](C)C4CC4)c3n2Cc2ccc(C#N)cc2)c1` [Example 4.16, (R)-7-(4-cyanobenzyl)-6-((1-cyclopropylethyl)amino)-8-(2-(3-hydroxypropoxy)-5-methylphenyl)-7H-purine-2-carboxylic acid], the IC50 (Table 4) was 481 nM.

With `Cc1ccc(OCCCN2CCN(C)CC2)c(-c2nc3nc(C(=O)O)nc(N[C@H](C)C4CC4)c3n2Cc2ccc(Cl)cc2)c1` [Example 4.17, (R)-7-(4-chlorobenzyl)-6-(1-cyclopropylethylamino)-8-(5-methyl-2-(3-(4-methylpiperazin-1-yl)propoxy)phenyl)-7H-purine-2-carboxylic acid] the IC50 (Table 4) was 507 nM.

With `Cc1ccc(O)c(-c2nc3nc(C(=O)O)nc(N[C@H](C)C4CC4)c3n2Cc2ccc(Cl)cc2)c1` [Example 4.18, (R)-7-(4-chlorobenzyl)-6-((1-cyclopropylethyl)amino)-8-(2-hydroxy-5-methylphenyl)-7H-purine-2-carboxylic acid] the IC50 (Table 4) was 347 nM.

`Cc1ccc(OCC(O)CO)c(-c2nc3nc(C(=O)O)nc(N[C@H](C)C4CC4)c3n2Cc2ccc(Cl)cc2)c1` (stereo partly drawn) [Example 4.19, 7-(4-chlorobenzyl)-6-(((R)-1-cyclopropylethyl)amino)-8-(2-(2,3-dihydroxypropoxy)-5-methylphenyl)-7H-purine-2-carboxylic acid] gave an IC50 (Table 4) of 586 nM.

`Cc1ccc(OCCCO)c(-c2nc3nc(C(=O)O)nc(N[C@H](C)C4CC4)c3n2Cc2ccc(Cl)cc2)c1` [Example 4.20, (R)-7-(4-chlorobenzyl)-6-((1-cyclopropylethyl)amino)-8-(2-(3-hydroxypropoxy)-5-methylphenyl)-7H-purine-2-carboxylic acid] gave an IC50 (Table 4) of 112 nM.

`Cc1cccc(-c2nc3nc(C(=O)O)nc(N[C@H](C)C4CC4)c3n2C(C)c2ccc(Cl)cc2)c1` (stereo partly drawn) [Example 5.1, 7-(1-(4-chlorophenyl)ethyl)-6-(((R)-1-cyclopropylethyl)amino)-8-(3-methylphenyl)-7H-purine-2-carboxylic acid] was tested, and the IC50 (Table 5) was 855 nM.

Work on `Cc1cccc(-c2nc3nc(C(=O)O)nc(NCC4CC4)c3n2C(C)c2ccc(Cl)cc2)c1` (centres unmarked) [Example 5.2, 7-(1-(4-chlorophenyl)ethyl)-6-((cyclopropylmethyl)amino)-8-(m-tolyl)-7H-purine-2-carboxylic acid] yielded an IC50 (Table 5) of 984 nM.

Compound `Cc1cccc(-c2nc3nc(C(=O)O)nc(N[C@@H](C)C4CC4)c3n2C(C)c2ccc(Cl)cc2)c1` (stereo partly drawn) [Example 5.3, 7-(1-(4-chlorophenyl)ethyl)-6-((S)-1-cyclopropylethylamino)-8-(3-methylphenyl)-7H-purine-2-carboxylic acid] has an IC50 (Table 5) of 601 nM.

Compound `Cc1cccc(-c2nc3nc(C(=O)O)nc(N[C@H](C)C4CC4)c3n2Cc2ccc(F)c(C(F)(F)F)c2)c1` [Example 5.4, 6-{[(1R)-1-cyclopropylethyl]amino}-7-[4-fluoro-3-(trifluoromethyl)benzyl]-8-(3-methylphenyl)-7H-purine-2-carboxylic acid] has an IC50 (Table 5) of 4140 nM.

`CCOc1ccc(C(F)(F)F)cc1Cn1c(-c2cccc(C)c2)nc2nc(C(=O)O)nc(N[C@H](C)C3CC3)c21` [Example 5.5, 6-{[(1R)-1-cyclopropylethyl]amino}-7-(2-ethoxy-5-(trifluoromethyl)benzyl)-8-(3-methylphenyl)-7H-purine-2-carboxylic acid] showed an IC50 (Table 5) of 2740 nM.

For `CCOc1ccccc1Cn1c(-c2cccc(C)c2)nc2nc(C(=O)O)nc(N[C@H](C)C3CCC3)c21` [Example 5.6, 6-{[(1R)-1-cyclobutylethyl]amino}-7-(2-ethoxybenzyl)-8-(3-methylphenyl)-7H-purine-2-carboxylic acid], the IC50 (Table 5) was 1840 nM.

Work on `Cc1cccc(-c2nc3nc(C(=O)O)nc(N[C@H](C)C4CC4)c3n2Cc2ccc(C(C)C)cc2)c1` [Example 5.7, 6-{[(1R)-1-cyclopropylethyl]amino}-7-[4-(1-methylethyl)benzyl]-8-(3-methylphenyl)-7H-purine-2-carboxylic acid] yielded an IC50 (Table 5) of 3550 nM.

`Cc1cccc(-c2nc3nc(C(=O)O)nc(N[C@H](C)C4CC4)c3n2Cc2ccc(OC(F)(F)F)cc2)c1` [Example 5.8, 6-{[(1R)-1-cyclopropylethyl]amino}-8-(3-methylphenyl)-7-[4-(trifluoromethoxy)benzyl]-7H-purine-2-carboxylic acid] was tested, and the IC50 (Table 5) was 149 nM.

Work on `Cc1cccc(-c2nc3nc(C(=O)O)nc(N[C@H](C)C4CC4)c3n2Cc2ccc(C(F)(F)F)c(F)c2)c1` [Example 5.9, 6-{[(1R)-1-cyclopropylethyl]amino}-7-[3-fluoro-4-(trifluoromethyl)benzyl]-8-(3-methylphenyl)-7H-purine-2-carboxylic acid] yielded an IC50 (Table 5) of 119 nM.

Work on `Cc1cccc(-c2nc3nc(C(=O)O)nc(N[C@H](C)C4CCC4)c3n2Cc2ccc(C3CC3)cc2)c1` [Example 5.10, 6-{[(1R)-1-cyclobutylethyl]amino}-7-(4-cyclopropylbenzyl)-8-(3-methylphenyl)-7H-purine-2-carboxylic acid] yielded an IC50 (Table 5) of 270 nM.

`Cc1cccc(-c2nc3nc(C(=O)O)nc(N[C@H](C)C4CCC4)c3n2Cc2ccc(Cl)cc2Cl)c1` [Example 5.11, 6-{[(1R)-1-cyclobutylethyl]amino}-7-(2,4-dichlorobenzyl)-8-(3-methylphenyl)-7H-purine-2-carboxylic acid] gave an IC50 (Table 5) of 259 nM.

For `Cc1cccc(-c2nc3nc(C(=O)O)nc(N[C@H](C)C4CCC4)c3n2Cc2ccc(C(F)(F)F)cc2Cl)c1` [Example 5.12, 7-[2-chloro-4-(trifluoromethyl)benzyl]-6-{[(1R)-1-cyclobutylethyl]amino}-8-(3-methylphenyl)-7H-purine-2-carboxylic acid], the IC50 (Table 5) was 94.6 nM.

With `Cc1cccc(-c2nc3nc(C(=O)O)nc(N[C@H](C)C4CCC4)c3n2Cc2ccc(OC(F)F)cc2)c1` [Example 5.13, 6-{[(1R)-1-cyclobutylethyl]amino}-7-[4-(difluoromethoxy)benzyl]-8-(3-methylphenyl)-7H-purine-2-carboxylic acid] the IC50 (Table 5) was 128 nM.

With `Cc1cccc(-c2nc3nc(C(=O)O)nc(N[C@H](C)C4CCC4)c3n2Cc2ccc(OC(F)(F)F)c(F)c2)c1` [Example 5.14, 6-{[(1R)-1-cyclobutylethyl]amino}-7-[3-fluoro-4-(trifluoromethoxy)benzyl]-8-(3-methylphenyl)-7H-purine-2-carboxylic acid] the IC50 (Table 5) was 36.4 nM.

Compound `Cc1cccc(-c2nc3nc(C(=O)O)nc(N[C@H](C)C4CC4)c3n2Cc2ccc(C(F)(F)F)c(Cl)c2)c1` [Example 5.15, 7-[3-chloro-4-(trifluoromethyl)benzyl]-6-{[(1R)-1-cyclopropylethyl]amino}-8-(3-methylphenyl)-7H-purine-2-carboxylic acid] has an IC50 (Table 5) of 609 nM.

`Cc1cccc(-c2nc3nc(C(=O)O)nc(N[C@H](C)C4CC4)c3n2Cc2ccccc2C(F)(F)F)c1` [Example 5.16, 6-{[(1R)-1-cyclopropylethyl]amino}-8-(3-methylphenyl)-7-[2-(trifluoromethyl)benzyl]-7H-purine-2-carboxylic acid] showed an IC50 (Table 5) of 8330 nM.

In the case of `Cc1cccc(-c2nc3nc(C(=O)O)nc(N[C@H](C)C4CCC4)c3n2Cc2ccc(C(F)(F)F)cc2F)c1` [Example 5.17, 6-{[(1R)-1-cyclobutylethyl]amino}-7-[2-fluoro-4-(trifluoromethyl)benzyl]-8-(3-methylphenyl)-7H-purine-2-carboxylic acid], the IC50 (Table 5) is reported as 74.3 nM.

In the case of `CCOc1cc(C(F)(F)F)ccc1Cn1c(-c2cccc(C)c2)nc2nc(C(=O)O)nc(N[C@H](C)C3CCC3)c21` [Example 5.18, 6-{[(1R)-1-cyclobutylethyl]amino}-7-[2-ethoxy-4-(trifluoromethyl)benzyl]-8-(3-methylphenyl)-7H-purine-2-carboxylic acid], the IC50 (Table 5) is reported as 207 nM.

With `COc1ccc(Cn2c(-c3cccc(C)c3)nc3nc(C(=O)O)nc(N[C@H](C)C4CCC4)c32)cc1` [Example 5.19, 6-{[(1R)-1-cyclobutylethyl]amino}-7-(4-methoxybenzyl)-8-(3-methylphenyl)-7H-purine-2-carboxylic acid] the IC50 (Table 5) was 582 nM.

Work on `CCc1ccc(Cn2c(-c3cccc(C)c3)nc3nc(C(=O)O)nc(N[C@H](C)C4CC4)c32)cc1` [Example 5.20, 6-{[(1R)-1-cyclopropylethyl]amino}-7-(4-ethylbenzyl)-8-(3-methylphenyl)-7H-purine-2-carboxylic acid] yielded an IC50 (Table 5) of 1200 nM.

`Cc1ccc(Cn2c(-c3cccc(C)c3)nc3nc(C(=O)O)nc(N[C@H](C)C4CC4)c32)cc1` [Example 5.21, 6-{[(1R)-1-cyclopropylethyl]amino}-7-(4-methylbenzyl)-8-(3-methylphenyl)-7H-purine-2-carboxylic acid] was tested, and the IC50 (Table 5) was 1200 nM.
